Test results from publication PMC3688948, “Distinctive G Protein-Dependent Signaling by Protease-Activated Receptor 2 (PAR2) in Smooth Muscle: Feedback Inhibition of RhoA by cAMP-Independent PKA” (PLoS ONE, 2013).
Read-outs that look alike come from different tables or passages of the source. Peptide text beside a SMILES is read from it. * marks the point of attachment. Myristoyl = CCCCCCCCCCCCCC(=O)*; Cbz = O=C(OCc1ccccc1)*

Assays:
[1] = tested on: dispersed gastric smooth muscle cells; details: for contraction (decrease in cell length), comparator agonists: other contractile agonists, concentration not given; for effect of inhibitor on sustained (10 min) contraction by PAR2-AP: inhibitor 10 min (U73122 10 µM, ML-9 10 µM, bisindolylmaleimide 1 µM, Y27632 1 µM), then PAR2-AP 1 µM 10 min
PAR2 [2] = molecular target: T1, PAR2 (Oryctolagus cuniculus, UniProt G1SHU9); type: cell-based, rabbit
T1 construct: Freshly dispersed muscle cells labelled with myo-2-[^3H]inositol were incubated with different concentrations of PAR2-AP for 60 s; endogenous in cells; host or cells: freshly dispersed and primary cultured rabbit gastric smooth muscle cells
T1 sequence (G1SHU9 25-397): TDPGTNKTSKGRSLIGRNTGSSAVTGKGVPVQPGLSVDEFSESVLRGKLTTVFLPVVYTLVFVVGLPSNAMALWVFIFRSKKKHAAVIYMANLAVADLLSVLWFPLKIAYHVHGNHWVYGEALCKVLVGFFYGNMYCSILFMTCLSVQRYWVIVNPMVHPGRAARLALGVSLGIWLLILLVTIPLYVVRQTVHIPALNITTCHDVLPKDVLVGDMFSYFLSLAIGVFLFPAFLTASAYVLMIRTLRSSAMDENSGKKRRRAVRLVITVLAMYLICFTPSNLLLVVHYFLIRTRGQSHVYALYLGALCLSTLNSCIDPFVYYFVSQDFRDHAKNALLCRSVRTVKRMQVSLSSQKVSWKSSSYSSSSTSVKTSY

Rho kinase = Rho kinase activity (immunokinase assay), PAR2-AP-stimulated or basal; type: cell-based, rabbit; details: for basal Rho kinase activity with inhibitor alone / effect of inhibitor on PAR2-AP-induced Rho kinase activity: IKK IV 10 µM; for basal Rho kinase activity with inhibitor alone: MG-132 10 µM or myristoylated PKI 1 µM alone, basal 3125±502 cpm/mg protein, n = four; for effect of inhibitor on PAR2-AP-induced Rho kinase activity: MG-132 10 µM or myristoylated PKI 1 µM, PAR2-AP 1 µM 10 min, freshly dispersed cells, P<0.01
[3] = tested on: NF-kB/PKA catalytic subunit complex; assay: Association of PKA catalytic subunit with NF-kB (co-immunoprecipitation); type: cell-based, rabbit; details: cells transfected with PAR2-specific siRNA, PAR2-AP 10 min
PAR2 [4] = molecular target: T1, PAR2; assay: PAR2 expression (western blot); type: cell-based, rabbit; details: transfection with PAR2-specific siRNA for 48 h, cultured cells
adenylyl cyclase = assay: Forskolin-stimulated cAMP formation (adenylyl cyclase activity); type: cell-based, rabbit; details: forskolin 10 µM, 10 min, 100 µM isobutyl methyl xanthine; basal 2.8±0.5 pmol/mg protein; n = 4
Procedure: Adenylyl cyclase activity was measured by the formation of cAMP in response to agonists by radioimmunoassay using [^125I]cAMP [18], [21]. One ml (3×10^6 cells/ml) of cell suspension was treated for 60 s with forskolin (10 µM) in the presence of 100 µM isobutylmethyl xanthine, either alone or in combination with PAR2-AP (1 µM). The reaction was terminated with cold 6% trichloroacetic acid (v/v) and vortexed vigorously. After centrifugation, the supernatants were extracted three times with water-saturated diethyl ether to remove the tricholoroacetic acid and the samples were then lyophilized and frozen at –20°C. The samples were reconstituted for radioimmunoassay in 50 µl of 50 mM sodium acetate (pH 6.2) and acetylated with triethylamine/acetic anhydride (2∶1 v/v) for 30 min. […] The results are expressed as pmol of cAMP/mg protein.
Cyclic AMP formation was measured in freshly dispersed muscle cells in the presence of 100 µM isobutylmethylxanthine. Muscle cells were treated with PAR2-AP (1 µM) alone, forskolin (FSK, 10 µM) alone or forskolin plus PAR2-AP (1 µM) for 60 s and cAMP was measured by radioimmunoassay. In some experiments cells were treated with pertussis toxin (PTx, 200 ng/ml) for 60 min, and then treated with forskolin (10 µM) and PAR2-AP (1 µM) for 60 s. Results are expressed as pmol/mg protein.

[5] = molecular target: Protease-activated receptor 2 (PAR2) (rabbit (endogenous in gastric smooth muscle cells))
[6] = inhibitor 10 min (U73122 10 µM, ML-9 10 µM, bisindolylmaleimide 1 µM, Y27632 1 µM) or PTx 200 ng/ml 60 min, then PAR2-AP 1 µM 30 s

Molecule: CC(=O)OCC[N+](C)(C)C [acetylcholine]
- contraction (decrease in cell length), comparator agonists [1]: 31±3%

Molecule: trypsin
- PI hydrolysis above basal levels, trypsin (PAR2 [2]; trypsin 1 µM, basal 439±68 cpm/mg protein): 2653±302 cpm/mg protein

Molecule: O=S(=O)(c1cccc2c(Cl)cccc12)N1CCCNCC1 [ML-9]
- effect of inhibitor on initial (30 s) contraction by PAR2-AP [1, 6]: abolished
- effect of inhibitor on sustained (10 min) contraction by PAR2-AP [1]: not

Molecule: CC(C)C[C@@H](C=O)NC(=O)[C@H](CC(C)C)NC(=O)[C@H](CC(C)C)NC(=O)OCc1ccccc1 [MG-132] (Cbz-Leu-Leu-Leu-aldehyde)
- basal Rho kinase activity with inhibitor alone (Rho kinase; no effect): 2859±602 cpm/mg protein
- effect of inhibitor on PAR2-AP-induced Rho kinase activity (Rho kinase): significantly augmented

Molecule: COc1ccc2c(c1)CC[C@@H]1[C@@H]2CC[C@]2(C)[C@@H](NCCCCCCN3C(=O)C=CC3=O)CC[C@@H]12 [U73122]
- effect of inhibitor on initial (30 s) contraction by PAR2-AP [1, 6]: abolished
- effect of inhibitor on sustained (10 min) contraction by PAR2-AP [1]: not
- inhibition of PAR2-AP-stimulated PI hydrolysis by U73122 (PAR2 [2]; U73122 10 µM 10 min, then PAR2-AP 1 µM 60 s, freshly dispersed cells): abolished
- PI hydrolysis with inhibitor alone (PAR2 [2]; no PAR2-AP, U73122 10 µM 10 min or PTx 200 ng/ml 60 min, basal 520±66 cpm/mg protein, no effect on basal): 485±86 cpm/mg protein

Molecule: cholecystokinin
- contraction (decrease in cell length), comparator agonists [1]: 29±2%

Molecule: C[C@@H](N)[C@H]1CC[C@H](C(=O)Nc2ccncc2)CC1 [Y27632]
- effect of inhibitor on initial (30 s) contraction by PAR2-AP [1, 6]: not affected
- effect of inhibitor on sustained (10 min) contraction by PAR2-AP [1]: preferentially blocked
- basal Rho kinase activity with Y27632 alone (Rho kinase; Y27632 1 µM alone, basal 3363±587 cpm/mg protein, no effect): 3025±425 cpm/mg protein

Molecule: myristoylated PKI: membrane-permeable specific PKA inhibitory peptide, myristoylated PKI 14-22 amide (Myristoyl-SGRTGRRNA-NH2; SMILES CCCCCCCCCCCCCC(=O)N[C@@H](CO)C(=O)NCC(=O)N[C@@H](CCCNC(=N)N)C(=O)N[C@H](C(=O)NCC(=O)N[C@@H](CCCNC(=N)N)C(=O)N[C@@H](CCCNC(=N)N)C(=O)N[C@@H](CC(N)=O)C(=O)N[C@@H](C)C(N)=O)[C@@H](C)O; UniProt P61925 14-22, looked up, fragment)
- basal Rho kinase activity with inhibitor alone (Rho kinase; no effect): 3254±574 cpm/mg protein
- effect of inhibitor on PAR2-AP-induced Rho kinase activity (Rho kinase): significantly augmented

Molecule: NCCc1c[nH]c2ccc(O)cc12 [5-hydroxytryptamine]
- contraction (decrease in cell length), comparator agonists [1]: 30±4%

Molecule: bisindolylmaleimide
- effect of inhibitor on initial (30 s) contraction by PAR2-AP [1]: not affected
- effect of inhibitor on sustained (10 min) contraction by PAR2-AP [1]: not

Molecule: PAR2 siRNA: PAR-2 (ID#s453494): sense: 5′ CCUCCUCUCUGUCAUCUGGTT 3′, antisense: 5′ CCAGAUGACAGAGAGGAGGTC3′ (chemistry not given here)
- effect of PAR2 siRNA on PAR2-AP-induced NF-kB and PKA catalytic subunit dissociation [3]: blocked
- expression of PAR2 (PAR2 [4]): greatly suppressed the expression of PAR2
- inhibition of PAR2-AP-stimulated PI hydrolysis by PAR2 siRNA (PAR2 [2]; cultured cells transfected with PAR2 siRNA, PAR2-AP 1 µM 60 s, p<0.001, n = four): 83±6%

Molecule: NC(=O)Nc1sc(-c2ccc(F)cc2)cc1C(N)=O [IKK IV]
- basal Rho kinase activity with inhibitor alone (Rho kinase; no effect): 3021±486 cpm/mg protein
- effect of inhibitor on PAR2-AP-induced Rho kinase activity (Rho kinase): significantly augmented

Molecule: C=C[C@@]1(C)CC(=O)[C@]2(O)[C@@]3(C)[C@@H](O)CCC(C)(C)[C@@H]3[C@H](O)[C@H](OC(C)=O)[C@@]2(C)O1 [forskolin]
- cAMP formation above basal level (adenylyl cyclase): 22.1±1.86 pmol/mg protein

B1: PAR2-activating peptide (PAR2-AP, SLIGRL) (peptide)
peptide: SLIGRL
- stimulation of PI hydrolysis in freshly dispersed rabbit gastric smooth muscle cells, concentration-dependent (EC50) [5]: 2 nM
